According to US9055743B2, “Alpha, beta-unsaturated imines” (BAYER INTELLECTUAL PROPERTY GMBH, priority 2010, dated 2015):

Legend:
Format in all cases: in vivo
[1] = system: caterpillars of the army worm (Spodoptera frugiperda); test: Spodoptera frugiperda test (SPODFR spray treatment); settings: 500 g/ha, spray, after 7 days
Experimental: Spodoptera frugiperda Test (SPODFR Spray Treatment) Solvents: 78.0 parts by weight of acetone • • 1.5 parts by weight of dimethylformamide Emulsifier: 0.5 part by weight of alkylaryl polyglycol ether
(§1) To produce a suitable preparation of active compound, 1 part by weight of active compound is mixed with the stated amounts of solvents and emulsifier, and the concentrate is diluted with emulsifier-containing water to the desired concentration.
Discs of maize leaves (Zea mays) are sprayed with an active compound preparation of the desired concentration and, after drying, populated with caterpillars of the army worm (Spodoptera frugiperda) besetzt.
After 7 days, the activity in % is determined. 100% means that all caterpillars have been killed; 0% means that none of the caterpillars have been killed.

[2] = system: greenhouse red spider mite (Tetranychus urticae); test: Tetranychus test; OP-resistant (TETRUR spray treatment); settings: 500 g/ha, spray, after 6 days
Experimental: Tetranychus Test; OP-Resistant (TETRUR Spray Treatment) Solvents: 78.0 parts by weight of acetone • • 1.5 parts by weight of dimethylformamide Emulsifier: 0.5 part by weight of alkylaryl polyglycol ether
as §1
Discs of bean leaves (Phaseolus vulgaris) infested by all stages of the greenhouse red spider mite (Tetranychus urticae) are sprayed with an active compound preparation of the desired concentration.
After 6 days, the activity in % is determined. 100% means that all spider mites have been killed; 0% means that none of the spider mites have been killed.

[3] = system: larvae of the mustard beetle (Phaedon cochleariae); test: Phaedon test (PHAECO spray treatment); settings: 500 g/ha, spray, after 7 days
Experimental: Phaedon Test ([…] Spray Treatment) Solvents: 78.0 parts by weight of acetone • • 1.5 parts by weight of dimethylformamide Emulsifier: 0.5 part by weight of alkylaryl polyglycol ether To produce a suitable preparation of active compound, 1 part by weight of active compound is mixed with the stated amounts of solvents and emulsifiers, and the concentrate is diluted with emulsifier-containing water to the desired concentration. Discs of Chinese cabbage leaves (Brassica pekinensis) are sprayed with an active compound preparation of the desired concentration and, after drying, populated with larvae of the mustard beetle (Phaedon cochleariae).

[4] = system: green peach aphid (Myzus persicae); test: Myzus test (MYZUPE spray treatment); settings: 500 g/ha, spray, after 6 days
Experimental: Myzus Test (MYZUPE Spray Treatment) Solvents: 78 parts by weight of acetone • • 1.5 parts by weight of dimethylformamide Emulsifier: 0.5 part by weight of alkylaryl polyglycol ether
as §1
Discs of Chinese cabbage leaves (Brassica pekinensis) which are infested by all stages of the green peach aphid (Myzus persicae) are sprayed with an active compound preparation of the desired concentration.
After 6 days, the activity in % is determined. 100% means that all aphids have been killed; 0% means that none of the aphids have been killed.

[5] = system: Anopheles gambiae (homocygus kdr); test: Anopheles test (ANPHGB surface treatment); settings: exposition 30 minutes; for knock-down activity: 100 mg/m^2, two hours after contact; for activity (mortality in %): 100 mg/m^2, 24 hours after contact
Experimental: Anopheles Test (ANPHGB Surface Treatment) Solvent: Acetone
To produce a suitable preparation of active compound, the active compound is dissolved in acetone (2 mg/ml). The active compound preparation is pipetted onto a glazed tile and, after drying, adult mosquitoes of the species Anopheles gambiae (homocygus kdr) are placed onto the treated tile. The exposition time is 30 minutes.
Two hours after contact to the treated surface, the knock-down proportion of the test animals in % is determined.
24 hours after contact to the treated surface, the mortality in % is determined. Here, 100% means that all mosquitoes have been killed; 0% means that none of the mosquitoes has been killed.

`Cc1cccc(N=C2C(=CSc3ccccc3)C(C)c3ccccc32)c1` (mixture of isomers) [Example 1-12] was tested, and the “activity (caterpillars killed)” value [1] was 100%, the “activity (spider mites killed)” value [2] was 100% and the “activity (beetle larvae killed)” value [3] was 100%.
For `CC1C(=CSc2ccccc2)C(=Nc2ccccc2)c2ccccc21` (mixture of isomers) [Example 1-13], the “activity (aphids killed)” value [4] was 100%, the “activity (caterpillars killed)” value [1] was 100% and the “activity (spider mites killed)” value [2] was 100%. For the same molecule, the “activity (beetle larvae killed)” value [3] was 100%.
`C(Sc1ccccc1)=C1C(=Nc2ccccc2)c2ccccc2C1c1ccccc1` (mixture of isomers) [Example 1-19] was tested, and the “activity (aphids killed)” value [4] was 100%, the “activity (caterpillars killed)” value [1] was 100% and the “activity (spider mites killed)” value [2] was 100%. For the same molecule, the “activity (beetle larvae killed)” value [3] was 100%.
`Cc1ccc(N=C2C(=CSc3ccc(F)cc3)C(C)c3cc(Cl)ccc32)cc1` (mixture of isomers) [Example 1-50] was tested, and the knock-down activity [5] was 85%.
In the case of `Cc1ccc2c(c1)C(C)C(=CSc1ccc(F)cc1)C2=Nc1ccc(C)c(C)c1` (mixture of isomers) [Example 1-71], the “activity (aphids killed)” value [4] was 90%, the “activity (caterpillars killed)” value [1] was 100% and the knock-down activity [5] was 100%. For the same molecule, the “activity (spider mites killed)” value [2] was 100% and the “activity (beetle larvae killed)” value [3] was 100%.
For `Cc1cc(C)cc(N=C2C(=CSc3ccc(F)cc3)C(C)c3cc(C)ccc32)c1` (mixture of isomers) [Example 1-72], the “activity (caterpillars killed)” value [1] was 100%.
For `Cc1ccc(N=C2C(=CSc3ccc(F)cc3)CCc3cc(Cl)sc32)cc1` (mixture of isomers) [Example 1-91], the “activity (aphids killed)” value [4] was 90%, the “activity (caterpillars killed)” value [1] was 100% and the “activity (spider mites killed)” value [2] was 100%. The “activity (beetle larvae killed)” value [3] was 100%.
For `CCOC1=CC(=CSc2ccccc2)C(=Nc2ccc(C)cc2)CC1` (mixture of isomers) [Example 1-97], the “activity (spider mites killed)” value [2] was 100%.
In the case of `Cc1ccc(N=C2CCC(OC(C)C)=CC2=CSc2ccc(F)cc2)cc1` (mixture of isomers) [Example 1-99], the “activity (spider mites killed)” value [2] was 100%.
With `Cc1ccc(N=C2c3ccccc3C(c3ccccc3)C2C(Sc2ccccc2)Sc2ccccc2)cc1` (mixture of isomers) [Example 2-9] the “activity (aphids killed)” value [4] was 100%, the “activity (caterpillars killed)” value [1] was 100% and the “activity (spider mites killed)” value [2] was 100%. For the same molecule, the “activity (beetle larvae killed)” value [3] was 100%.
For `c1ccc(N=C2c3ccccc3C(c3ccccc3)C2C(Sc2ccccc2)Sc2ccccc2)cc1` (mixture of isomers) [Example 2-10], the “activity (aphids killed)” value [4] was 100%, the “activity (caterpillars killed)” value [1] was 100% and the “activity (spider mites killed)” value [2] was 100%.
With `Cc1ccc(N=C2C(=CSc3ccc(F)cc3)COc3cc(-c4ccccc4)ccc32)cc1` [Example 1-24] the “activity (aphids killed)” value [4] was 90%.
With `Cc1ccc(N=C2C(=CSc3ccc(F)cc3)C(C)Oc3ccc(F)cc32)cc1` (stereo not shown) [Example 1-25] the “activity (caterpillars killed)” value [1] was 100%.
With `Cc1ccc(N=C2C(=CSc3ccc(F)cc3)CCc3c(C)cc(C)cc32)cc1` [Example 1-30] the “activity (caterpillars killed)” value [1] was 100% and the “activity (spider mites killed)” value [2] was 80%.
For `CC(C)c1ccc(N=C2C(=CSc3ccc(F)cc3)CCc3ccccc32)cc1` [Example 1-42], the “activity (spider mites killed)” value [2] was 80%.
With `Cc1ccc(N=C2C(Br)=CC(C)(C)CC2=CSc2ccc(F)cc2)cc1` [Example 1-49] the “activity (aphids killed)” value [4] was 90% and the “activity (caterpillars killed)” value [1] was 100%.
`COc1ccc2c(c1C)OCC(=CSc1ccc(F)cc1)C2=Nc1ccc(C)cc1` [Example 1-52] was tested, and the “activity (mortality in %)” value [5] was 85%.
Molecule `Cc1ccc(N=C2C(=CSc3ccccc3)CCC/C2=C\Sc2ccccc2)cc1` [Example 1-60, N-{2,6-Bis[(phenylsulphanyl)methylene]cyclohexylidene}-4-methylaniline] has a pest or weed control at 500 g/ha ([1]; Spodoptera frugiperda, 168 h, read-out: activity (caterpillars killed)) of 100% and a pest or weed control at 500 g/ha ([3]; Phaedon cochleariae, 168 h, read-out: activity (beetle larvae killed)) of 100%.
In the case of `Cc1ccc(N=C2C=CC(C)(C)CC2=CSc2ccc(F)cc2)cc1C` [Example 1-64], the “activity (aphids killed)” value [4] was 80%, the “activity (caterpillars killed)” value [1] was 100% and the knock-down activity [5] was 100%. The “activity (spider mites killed)” value [2] was 80%.
For `Cc1ccc(N=C2C(=CSc3ccc(F)cc3)CCc3sc(Cl)cc32)cc1` [Example 1-66], the “activity (caterpillars killed)” value [1] was 100% and the “activity (beetle larvae killed)” value [3] was 100%.
`Cc1cc(C)cc(N=C2C(=CSc3ccc(F)cc3)CCc3ccccc32)c1` [Example 1-67] was tested, and the “activity (aphids killed)” value [4] was 80%, the “activity (caterpillars killed)” value [1] was 100% and the “activity (beetle larvae killed)” value [3] was 100%.
`Cc1ccc(N=C2C(=CSc3ccc(F)cc3)CCc3ccccc32)cc1C#N` [Example 1-68] was tested, and the “activity (caterpillars killed)” value [1] was 100%, the “activity (spider mites killed)” value [2] was 100% and the “activity (beetle larvae killed)” value [3] was 100%.
In the case of `COc1ccc(SC=C2CCc3ccccc3C2=Nc2ccc(C)cc2)cc1` [Example 1-73], the “activity (spider mites killed)” value [2] was 80%.
In the case of `Cc1ccc(N=C2C(=CSc3ccc(F)cc3)COc3cc(C(C)(C)C)ccc32)cc1` [Example 1-75], the “activity (caterpillars killed)” value [1] was 100%.
For `Cc1ccc(N=C2C(=CSc3ccc(F)cc3)CCc3cc(C)cc(C)c32)cc1` [Example 1-77], the “activity (mortality in %)” value [5] was 80%.
For `Cc1ccc(N=C2C(=CSc3cccc(F)c3)CCc3ccccc32)cc1` [Example 1-78], the “activity (aphids killed)” value [4] was 100%, the “activity (caterpillars killed)” value [1] was 100% and the “activity (spider mites killed)” value [2] was 100%. For the same molecule, the “activity (beetle larvae killed)” value [3] was 100%.
With `Cc1ccc(N=C2C(=CSC3CCCC3)CCc3ccccc32)cc1` [Example 1-87] the “activity (aphids killed)” value [4] was 100%, the knock-down activity [5] was 80% and the “activity (spider mites killed)” value [2] was 100%. The “activity (beetle larvae killed)” value [3] was 100%.
With `Cc1ccc(N=C2C(=CSc3ccc(F)cc3)CCc3ccccc32)cc1F` [Example 1-89] the “activity (caterpillars killed)” value [1] was 100%, the knock-down activity [5] was 100% and the “activity (spider mites killed)” value [2] was 100%. For the same molecule, the “activity (beetle larvae killed)” value [3] was 100%.
For `Cc1ccc(N=C2C(=CSc3ccc(F)cc3)CCc3c2ccc2ccccc32)cc1F` [Example 1-92], the “activity (caterpillars killed)” value [1] was 100%, the “activity (spider mites killed)” value [2] was 100% and the “activity (beetle larvae killed)” value [3] was 100%.
`CC1=CC(C)(C)CC(=CSc2ccc(F)cc2)C1=Nc1ccc(C)cc1` [Example 1-93] was tested, and the “activity (spider mites killed)” value [2] was 90%.
In the case of `COc1ccc(N=C2c3ccccc3CCC2C(Sc2ccccc2)Sc2ccccc2)cc1` (stereo not shown) [Example 2-3], the “activity (mortality in %)” value [5] was 95%.
In the case of `Cc1ccc(N=C2c3ccc(F)cc3CCC2C(Sc2ccc(F)cc2)Sc2ccc(F)cc2)cc1` (stereo not shown) [Example 2-6], the “activity (mortality in %)” value [5] was 95%.
With `Cc1ccc(N=C2c3cc(F)ccc3CCC2C(Sc2ccc(F)cc2)Sc2ccc(F)cc2)cc1` (stereo not shown) [Example 2-8] the “activity (caterpillars killed)” value [1] was 100% and the “activity (spider mites killed)” value [2] was 90%.
